Values quoted from earlier work as cited in US20160249623A1, “METHODS FOR DISPENSING SALT-FREE HYPOCHLOROUS ACID FOR HAND-SANITIZING” (priority 2015, published 2016).

Columns and labels:
[1] = tested on: HIV (Human Immunodeficiency Virus); settings: the longest kill-time
[2] = tested on: all viruses, bacteria, mold and spores

In the case of `OCl` [HOCI, hypochlorous acid], the kill-time [1] is listed as “less than 1 minute” and the kill-time [2] is listed as “within seconds”.
